{"source": "patent US20210332024A1", "about": "“MODULATORS OF PIN1 ACTIVITY AND USES THEREOF” (Yeda Research and Development Co. Ltd., priority 2019, published 2021)", "key": {"[1]": {"system": "cysteine residues on a proteome-wide scale, PATU-8988T cells", "assay": "CITe-Id chemoproteomic selectivity experiment", "format": "cell-based", "conditions": "PATU-8988T cells, 100, 500 or 1000 nM for 5 hours", "protocol": "In order to profile the selectivity of Pin1-3, a Covalent Inhibitor Target-site Identification (CITe-Id) experiment [Browne et al., […] 2019, 141, 191-203] was performed, as depicted in FIG. 28.\nThis chemoproteomic platform enables the identification and quantification of the dose-dependent binding of covalent inhibitors to cysteine residues on a proteome-wide scale. In this competition experiment, live PATU-8988T cells were incubated with Pin1-3 (100, 500 or 1000 nM) for 5 hours, followed by cell lysis and co-incubation with Pin1-3-DTB (2 μM) for 18 hours. Following trypsin digest and avidin enrichment, the DTB-modified peptides were analyzed by shotgun LC-MS/MS."}, "Pin1": {"target": "T1, Pin1 (Homo sapiens, UniProt Q13526)", "T1 construct": "endogenous in cells; host or cells: patient-derived PDAC cells", "T1 sequence (Q13526 whole entry)": "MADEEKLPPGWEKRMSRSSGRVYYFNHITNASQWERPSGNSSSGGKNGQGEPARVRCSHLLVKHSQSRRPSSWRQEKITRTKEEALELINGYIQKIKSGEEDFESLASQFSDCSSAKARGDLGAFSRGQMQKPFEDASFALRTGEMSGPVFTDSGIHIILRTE", "assay": "Pin1 levels in PDAC cells (Western blot)", "format": "cell-based", "conditions": "treated for 3 days", "protocol": "Pancreatic ductal adenocarcinoma (PDAC) cells (derived from a human patient) were treated with Pin1-3 for 3 days. PDAC organoids were treated with Pin1-3 for 7 days (day 7 to day 14)."}, "[2]": {"system": "Pin1-knockout 8988T pancreatic cancer cells", "assay": "Prolonged-treatment cell growth, Pin1-knockout 8988T", "format": "cell-based", "conditions": "1 μM", "protocol": "(§1) The ability of Pin1-3 treatment to induce more pronounced anti-proliferative effects after prolonged treatment (6-8 days) was then assessed. In order to ensure that target engagement was maintained for the duration of the experiment, Pin1-3 was replenished in fresh media every 48 hours.\nThe effect of Pin1-binding compounds on 8988T pancreatic adenocarcinoma cells was assessed by incubating cells with 1 μM Pin1-3, and evaluating cell growth relative to cells incubated with vehicle (DMSO) alone. In order to confirm that the effect of Pin1-3 is mediated by Pin1, the experiment was repeated using Pin1 knockout cells."}, "germinal centers": {"system": "germinal centers", "assay": "Germinal center size after NP-OVA immunization", "format": "in vivo, mice", "conditions": "IP 40 mg/kg on days 7 and 9 post immunization, day 11", "protocol": "12 wild-type mice were immunized with OVA coupled to the hapten 4-hydroxy-3-nitrophenylacetyl (NP-OVA) precipitated in alum. The mice were injected with two doses of Pin1-3 (IP; 40 mg/kg) or vehicle on days 7 and 9 post immunization, and on day 11 the mice were sacrificed and germinal centers size was assessed in lymph nodes by flow cytometry."}, "[3]": {"system": "Kuramochi ovarian carcinoma cells", "assay": "Prolonged-treatment cell growth, Kuramochi", "format": "cell-based", "conditions": "1 or 2.5 μM", "protocol": "as §1"}, "[4]": {"assay": "Thiol reactivity assay (DTNB)", "format": "physicochemical", "conditions": "200 μM compound, pH 7.4, 37° C.", "protocol": "50 μM DTNB (dithionitrobenzoic acid) was incubated with 200 μM TCEP (tris(2-carboxytehyl)phosphine) in 20 mM sodium phosphate buffer (pH 7.4) with 150 mM NaCl, for 5 minutes at room temperature, in order to obtain TNB^2− (thionitrobenzoate dianion). 200 μM compounds were subsequently added to the TNB^2−, followed by immediate UV absorbance measurement at 412 nm (at 37° C.). The UV absorbance was acquired every 15 minutes for 7 hours. The assay was performed in a 384-well plate using a Spark™ 10M plate reader (Tecan). Background absorbance of compounds was subtracted by measuring the absorbance at 412 nm of each compound under the same conditions without DTNB. Compounds were measured in triplicates. The data was fitted to a second order reaction equation such that the rate constant k is the slope of ln([A][B0]/[B][A0]), where [A0] and [B0] are the initial concentrations of the compound (200 μM) and TNB^2− (100 μM) respectively, and [A] and [B] are the remaining concentrations as a function of time, as determined from the spectrometric measurement. Linear regression using Prism® software was performed to fit the rate against the first four hours of measurements.\nIn order to estimate the influence of the various lipophilic moieties on “warhead” reactivity [Flanagan et al., J Med Chem 2014, 57:10072-10079; Lonsdale et al., J Chem Inf Model 2017, 57:3124-3137; Dahal et al., Medchemcomm 2016, 7:864-872], the thiol reactivity of the top ten binders of the second and third generation was assessed using a high-throughput assay previously applied to the entire fragment library, as described in Resnick et al. [J Am Chem Soc 2019, 141:8951-8968]. In brief, the second-order rate constant was evaluated for a model thiol, which reflects trends in general reactivity towards thiol groups."}}}
{"smiles": "CC(C)(C)CN(C(=O)CCl)C1CCS(=O)(=O)C1", "note": "(stereo not shown) [Pin1-3, 2-chloro-N-(sulfolan-3-yl)-N-neopentylacetamide]", "values": [{"measurement": "Dose-dependent competition among 162 cysteine residues labeled by Pin1-3-DTB", "setting": "[1]", "value": "only Pin1 Cys113 exhibited dose-dependent competition"}, {"measurement": "Pin1 levels in PDAC cells", "setting": "Pin1", "value": "reduced Pin1 in PDAC cells in a dose-dependent manner"}, {"measurement": "Cell viability / growth", "setting": "[2]", "value": "no considerable effect"}, {"measurement": "Germinal centers size (FAS^Hi CD38^− GC cells, flow cytometry)", "setting": "germinal centers", "value": "significantly larger germinal centers"}, {"measurement": "Cell growth", "setting": "[3]", "value": "long-term inhibition"}, {"measurement": "Reactivity Log k", "setting": "[4]", "value": "−7.43"}, {"measurement": "Reactivity k", "setting": "[4]", "value": "3.73e-08", "unit": "M⁻¹ s⁻¹"}]}
